The test system of series [1] is LPS-induced IL-8 release in d-U937 cells. Nature of the series: LPS-induced IL-8 release in d-U937 cells. Type of series: cell-based. The conditions noted are these: Homo sapiens, dU937, 0.1 μg/mL LPS, 4 hr. Put shortly:
(§1)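 U937 cells differentiated with PMA (100 ng/mL, 48–72 hr), pre-incubated with compound 2 hr, then stimulated with 0.1 μg/mL E. coli O111:B4 LPS for 4 hr. Supernatant TNFα and IL-8 measured by sandwich ELISA; REC50 (TNFα) and IC50 (IL-8 inhibition vs vehicle) taken from concentration-response curves.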

The subject of series [2] is Differentiated U937 cells. Nature of the series: MTT assay: cell viability on exposure to test compounds. Type of series: cell-based, human. The following applies: percentage loss of cell viability vs vehicle, 1 μg/mL; for MTT Assay (Viability) 4 h d-U937: 5% FCS; for MTT Assay (Viability) 24 h d-U937: 10% FCS. The gist of the method: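 Differentiated U937 cells were pre-incubated with compound for either 4 h in 5% FCS or 24 h in 10% FCS, then given MTT for 1 h. Formazan was dissolved in DMSO and read at 550 nm. Viability loss is expressed as % versus 0.5% DMSO vehicle, so an apparent gain appears as a negative value.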

Series [3] has as its target T1, Recombinant, phosphorylated p38 MAPKγ (MAPK12:Invitrogen) (Homo sapiens, UniProt P53778).
T1 construct: purchased Invitrogen
T1 sequence (P53778 1-367): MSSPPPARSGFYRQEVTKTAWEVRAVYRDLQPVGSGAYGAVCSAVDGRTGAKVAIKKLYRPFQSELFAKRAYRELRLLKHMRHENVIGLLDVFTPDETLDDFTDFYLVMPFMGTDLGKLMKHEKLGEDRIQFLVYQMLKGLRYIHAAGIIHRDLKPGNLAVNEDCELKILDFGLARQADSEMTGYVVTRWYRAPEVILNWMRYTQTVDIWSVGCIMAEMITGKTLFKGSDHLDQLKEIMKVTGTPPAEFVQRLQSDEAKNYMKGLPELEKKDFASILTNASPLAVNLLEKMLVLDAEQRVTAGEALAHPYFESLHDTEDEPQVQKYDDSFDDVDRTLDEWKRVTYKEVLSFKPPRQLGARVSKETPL
Nature of the series: p38 MAPKγ enzyme inhibition assay (FRET, Z-LYTE). Type of series: biochemical. The conditions noted are these: 2 hr pre-incubation, ATP 100 μM; read-out: Enzyme Inhibition IC50 p38γ.
Description: (§2) The enzyme inhibitory activities of compounds disclosed herein were determined by fluorescence resonance energy transfer (FRET) using synthetic peptides labelled with both donor and acceptor fluorophores (Z-LYTE, Invitrogen Ltd., Paisley, UK). Recombinant, phosphorylated p38 MAPKγ (MAPK12:Invitrogen) was diluted in HEPES buffer, mixed with the test compound at the desired final concentrations and incubated for 2 hr at RT. The FRET peptide (2 μM) and ATP (100 μM) were added to the enzyme/compound mixture and incubated for 1 hr. Development reagent (protease) was added for 1 hr prior to detection in a fluorescence microplate reader (Varioskan® Flash, ThermoFisher Scientific). The site-specific protease cleaves non-phosphorylated peptide only and eliminates the FRET signal. Phosphorylation levels of each reaction were calculated using the ratio of coumarin emission (donor) over fluorescein emission (acceptor) for which high ratios indicate high phosphorylation and low ratios indicate low phosphorylation levels.

Series [4] has as its target T2, p38 MAPKα isoform (MAPK14: Invitrogen) (Homo sapiens, UniProt Q16539).
T2 construct: purchased Invitrogen
Nature of the series: p38 MAPKα enzyme inhibition assay (FRET, Z-LYTE, via MAPKAP-K2 activation). Type of series: biochemical. The following applies: 2 hr pre-incubation, ATP 10.0 μM; read-out: Enzyme Inhibition IC50 p38α.
Description: as §2
For the p38 MAPKα isoform (MAPK14: Invitrogen), enzyme activity was evaluated indirectly by determining the level of activation/phosphorylation of the down-stream molecule, MAPKAP-K2. The p38 MAPKα protein was mixed with the test compound for 2 hr at RT. […] Development reagent was then added and the mixture incubated for 1 hr before detection by fluorescence completed the assay protocol.

In series [5] the test system is LPS-induced TNFα release in THP-1 cells. Briefly: LPS-induced TNFα release in THP-1 cells. Type of series: cell-based. The conditions noted are these: Homo sapiens, 3 μg/mL LPS, 4 hr. The gist of the method: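 Human monocytic cells were stimulated with 3 μg/mL E. coli LPS for 4 hr. Supernatant TNFα was measured by sandwich ELISA. Inhibition was taken relative to vehicle control, and IC50 derived from the concentration-response curve.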

Series [6] deals with LPS-induced TNFα release in d-U937 cells. Briefly: LPS-induced TNFα release in d-U937 cells. Type of series: cell-based. The conditions noted are these: Homo sapiens, dU937, 4 h; read-out: LPS/TNFα REC50 d-U937. Put shortly: as §1
The test system of series [7] is Poly I:C-induced ICAM-1 expression in BEAS2B cells. Briefly: Poly I:C-induced ICAM-1 induction in BEAS2B cells. It is filed as cell-based. The following applies: Homo sapiens, BEAS-2B, poly I:C 1 μg/mL, 18 hr, read-out: PolyI:C/ICAM1 IC50 BEAS2B. Put shortly: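 Human bronchial epithelial BEAS2B cells were pre-incubated with compound for 2 h, then transfected with poly I:C at 1 μg/mL. Surface ICAM-1 was measured 18 h later by cell-based ELISA (OD450–655), normalised to crystal-violet cell number (OD595). IC50 was taken from the concentration–response curve against vehicle.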

The record followed here is patent US9024041B2, “P38 MAP kinase inhibitors” (Respivert Ltd., priority 2010, dated 2015).

T2 sequence (Q16539 whole entry, canonical isoform): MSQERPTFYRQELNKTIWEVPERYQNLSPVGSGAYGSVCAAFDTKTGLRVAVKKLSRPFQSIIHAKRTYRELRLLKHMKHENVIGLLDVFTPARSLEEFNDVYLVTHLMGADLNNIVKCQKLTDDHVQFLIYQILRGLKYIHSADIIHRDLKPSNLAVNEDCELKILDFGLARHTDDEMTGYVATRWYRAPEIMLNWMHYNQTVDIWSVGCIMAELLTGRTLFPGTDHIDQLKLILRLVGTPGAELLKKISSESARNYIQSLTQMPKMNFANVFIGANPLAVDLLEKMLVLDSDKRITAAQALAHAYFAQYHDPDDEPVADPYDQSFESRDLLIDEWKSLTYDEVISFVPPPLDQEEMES

With `CNC(=O)Nc1cc(Oc2ccc(NC(=O)Nc3cc(C(C)(C)C)nn3-c3ccc(S(C)(=O)=O)cc3)c3ccccc23)ccn1` [Example 46, 1-(3-tert-butyl-1-(4-(methylsulfonyl)phenyl)-1H-pyrazol-5-yl)-3-(4-((2-(3-methylureido)pyridin-4-yl)oxy)naphthalen-1-yl)urea], the IC50 in series [1] turned out to be 2 nM; in series [3] it was 104 nM; in series [4] it was 36.2 nM; in series [5], 2.3 nM; in series [7], 41.2 nM. Besides, in series [2], the “MTT Assay (Viability) 4 h d-U937” value is recorded as −12.6%. For the same molecule, the “MTT Assay (Viability) 24 h d-U937” value in series [2] was −47.9%. In series [6], the EC50 stood at 0.4 nM.

Regarding `CC(C)(C)c1cc(NC(=O)Nc2ccc(Oc3ccnc(NC(=O)NC4CC4)c3)c3ccccc23)n(-c2ccc(S(C)(=O)=O)cc2)n1` [Example 47, 1-(3-tert-butyl-1-(4-(methylsulfonyl)phenyl)-1H-pyrazol-5-yl)-3-(4-(2-(3-cyclopropylureido)pyridin-4-yloxy)naphthalen-1-yl)urea], the IC50 in series [1] was found to be 24.3 nM; in series [3] it was 262 nM; in series [4], 8.4 nM; in series [5], 17.3 nM; in series [7], 2.4 nM. In addition, the “MTT Assay (Viability) 4 h d-U937” value in series [2] is on record as 3.5%. The “MTT Assay (Viability) 24 h d-U937” value in series [2] is on record as −21.7%. For the same molecule, the EC50 in series [6] was determined as 17 nM.

Turning to `CN1CCN(C(=O)Nc2cc(Oc3ccc(NC(=O)Nc4cc(C(C)(C)C)nn4-c4ccc(S(C)(=O)=O)cc4)c4ccccc34)ccn2)CC1` [Example 48, N-(4-(4-(3-(3-tert-butyl-1-(4-(methylsulfonyl)phenyl)-1H-pyrazol-5-yl)ureido)naphthalen-1-yloxy)pyridin-2-yl)-4-methylpiperazine-1-carboxamide], the IC50 came out at 5 nM in series [1]; 123 nM in series [3]; 0.6 nM in series [4]; 3.4 nM in series [5]; 32.7 nM in series [7]. For the same molecule, in series [2], the “MTT Assay (Viability) 4 h d-U937” value was −16.1%. Further, in series [2], the “MTT Assay (Viability) 24 h d-U937” value is −11.3%. Besides, in series [6], the EC50 stood at 2.4 nM.

As for `CC(C)(C)c1cc(NC(=O)Nc2ccc(Oc3ccnc(NC(=O)N4CCOCC4)c3)c3ccccc23)n(-c2ccc(S(C)(=O)=O)cc2)n1` [Example 49, N-(4-(4-(3-(3-tert-butyl-1-(4-(methylsulfonyl)phenyl)-1H-pyrazol-5-yl)ureido)naphthalen-1-yloxy)pyridin-2-yl)morpholine-4-carboxamide], the IC50 in series [1] stood at 0.8 nM; in series [3], 185 nM; in series [4], 5.2 nM; in series [5] it was 0.8 nM; in series [7], 10.7 nM. For the same molecule, the “MTT Assay (Viability) 4 h d-U937” value in series [2] is −15.9%. In series [2], the “MTT Assay (Viability) 24 h d-U937” value was determined as 11.8%. Besides, the EC50 in series [6] came to 0.5 nM.

For `COCC(=O)Nc1cc(Oc2ccc(NC(=O)Nc3cc(C(C)(C)C)nn3-c3ccc(S(C)(=O)=O)cc3)c3ccccc23)ncn1` [Example 50, N-(6-(4-(3-(3-tert-butyl-1-(4-(methylsulfonyl)phenyl)-1H-pyrazol-5-yl)ureido)naphthalen-1-yloxy)pyrimidin-4-yl)-2-methoxyacetamide], the IC50 was 272 nM in series [1]; 39.3 nM in series [3]; 9.5 nM in series [4]; 13.3 nM in series [5]; 100 nM in series [7]. Further, in series [2], the “MTT Assay (Viability) 4 h d-U937” value is on record as −8.0%. Further, in series [2], the “MTT Assay (Viability) 24 h d-U937” value is −10.4%. Further, the EC50 in series [6] came out at 4.5 nM.

`COCC(=O)Nc1cc(Oc2ccc(NC(=O)Nc3cc(C(C)(C)C)nn3-c3ccc(O)c(Cl)c3)c3ccccc23)ccn1` [Example 52, N-(4-(4-(3-(3-tert-butyl-1-(3-chloro-4-hydroxyphenyl)-1H-pyrazol-5-yl)ureido)naphthalen-1-yloxy)pyridin-2-yl)-2-methoxyacetamide]: the IC50 in series [1] was above 1630 nM; in series [3], 332 nM; in series [4] it was 1.9 nM; in series [5] it was 8.2 nM; in series [7] it was 5.7 nM. The “MTT Assay (Viability) 4 h d-U937” value in series [2] worked out at 8.5%. Besides, the “MTT Assay (Viability) 24 h d-U937” value in series [2] is reported as −48.8%. Moreover, in series [6], the EC50 was determined as 16.3 nM.

For `COCC(=O)Nc1cc(Oc2ccc(NC(=O)Nc3cc(C(C)(C)C)nn3-c3cc(OC)cc(OC)c3)c3ccccc23)ccn1` [Example 53, N-(4-(4-(3-(3-tert-butyl-1-(3,5-dimethoxyphenyl)-1H-pyrazol-5-yl)ureido)naphthalen-1-yloxy)pyridin-2-yl)-2-methoxyacetamide], the IC50 in series [1] was 20 nM; in series [3] it was 83.4 nM; in series [4], 29.9 nM; in series [5], 1.2 nM; in series [7], 27.4 nM. Also, the “MTT Assay (Viability) 4 h d-U937” value in series [2] is listed as 3.1%. Also, in series [2], the “MTT Assay (Viability) 24 h d-U937” value is −0.9%. Also, the EC50 in series [6] was determined as 0.4 nM.

Consider `COCC(=O)Nc1cc(Oc2ccc(NC(=O)Nc3cc(C(C)(C)C)nn3-c3ccc(OC)c(Cl)c3)c3ccccc23)ccn1` [Example 54, N-(4-(4-(3-(3-tert-butyl-1-(3-chloro-4-methoxyphenyl)-1H-pyrazol-5-yl)ureido)naphthalen-1-yloxy)pyridin-2-yl)-2-methoxyacetamide], for which the IC50 amounted to 2.7 nM in series [1]; 199 nM in series [3]; 9.1 nM in series [4]; 1.3 nM in series [5]; 0.7 nM in series [7]. Moreover, in series [2], the “MTT Assay (Viability) 4 h d-U937” value worked out at 0.1%. Moreover, the “MTT Assay (Viability) 24 h d-U937” value in series [2] is reported as −7.5%. Also, in series [6], the EC50 was 0.2 nM.

Take `COCC(=O)Nc1cc(Oc2ccc(NC(=O)Nc3cc(C(C)(C)C)nn3-c3ccc(Cl)c(Cl)c3)c3ccccc23)ccn1` [Example 55, N-(4-(4-(3-(3-tert-butyl-1-(3,4-dichlorophenyl)-1H-pyrazol-5-yl)ureido)naphthalen-1-yloxy)pyridin-2-yl)-2-methoxyacetamide]: the IC50 in series [1] turned out to be 5.5 nM; in series [3] it was 102 nM; in series [4] it was 14.9 nM; in series [5] it was 4.3 nM; in series [7], 14.7 nM. Moreover, the “MTT Assay (Viability) 4 h d-U937” value in series [2] is given as −16.1%. For the same molecule, in series [2], the “MTT Assay (Viability) 24 h d-U937” value is −71.1%. Further, in series [6], the EC50 stood at 0.8 nM.

For `COCC(=O)Nc1cc(Oc2ccc(NC(=O)Nc3cc(C(C)(C)C)nn3-c3ccc(C)nc3)c3ccccc23)ccn1` [Example 57, N-(4-(4-(3-(3-tert-butyl-1-(6-methylpyridin-3-yl)-1H-pyrazol-5-yl)ureido)naphthalen-1-yloxy)pyridin-2-yl)-2-methoxyacetamide], the IC50 is 17.2 nM in series [1]; 246 nM in series [3]; below 0.2 nM in series [4]; 1.6 nM in series [5]; 8.6 nM in series [7]. In addition, the “MTT Assay (Viability) 4 h d-U937” value in series [2] was −3.4%. In series [2], the “MTT Assay (Viability) 24 h d-U937” value was determined as 76.0%. The EC50 in series [6] stood at 0.3 nM.

`COCC(=O)Nc1cc(COc2ccc(NC(=O)Nc3cc(C(C)(C)C)nn3-c3ccc(C)cc3)c(C)c2C)ccn1` [Example 58, N-(4-((4-(3-(3-tert-butyl-1-(p-tolyl)-1H-pyrazol-5-yl)ureido)-2,3-dimethylphenoxy)methyl)pyridin-2-yl)-2-methoxyacetamide]: the IC50 in series [1] worked out at 45.6 nM; in series [3], 329 nM; in series [4], 10.6 nM; in series [5] it was 388 nM; in series [7], 474 nM. In series [2], the “MTT Assay (Viability) 4 h d-U937” value is given as −2.8%. Further, in series [2], the “MTT Assay (Viability) 24 h d-U937” value is 12.0%. Further, in series [6], the EC50 was 10.4 nM.
